Six compounds from patent US20250215015A1 (THE REGENTS OF THE UNIVERSITY OF CALIFORNIA, priority 2022, published 2025) can be followed below.

The subject of one series is U87 GBM. As to the kind of experiment: GBM agent potency in U87 cells. The series is classed as cell-based. The source says:
UCN-01 potency. The potency of UCN-01 markedly exceeds that of standard GBM agents in GBM U87 cells (Table 1), and it engages a unique pattern of signaling pathways to drive apoptosis. The ability of UCN-01 at noncytotoxic doses to abrogate G2 arrest is evident in p53 dysregulated cells. p53 is mutated in about 35% of primary GBM and 65% of secondary GBM. p53 pathway dysregulation occurs in 86% of GBM.

Another series concerns U87 flank tumors. The series is described as follows: U87 flank tumor growth in mice. The class given is in vivo, nu/nu mice.
Series [1] in a line: Toxicity in mice: body weight and liver enzymes. Conditions: mice bearing U87 GBM flank tumors. The class given is in vivo. The source says: Weight declined with STS but not PBS or LSTS. Bottom panel is bar graph depicting liver enzymes ALT/AST before and after treatment. For free STS the post treatment levels were flagged as abnormal (stars). ALT/AST enzyme levels were normal with empty liposomes (control) and LSTS. Reference levels shown by dashed lines.

The next series deals with phosphorylation of Akt. The series is described as follows: Western blot for Akt, P-Akt, cleaved PARP. The class given is cell-based. As to conditions: U87 cells. An excerpt: FIG. 5A: Western blot analysis for Akt, P-Akt, cleaved PARP. […] Representative blot from two independent experiments is shown.
In general terms: A western blot detects proteins with antibodies after separation by electrophoresis.

In the next series the test system is U87 cells. As to the kind of experiment: FACS analysis for DNA content. Conditions: treated cells. The series is classed as cell-based.
Series [2] deals with radioresistant U87 GBM cells. As to the kind of experiment: GBM radiosensitization in culture. The class given is cell-based. As to conditions: mildly cytotoxic nM levels, clinically relevant radiation doses. How it is done: Bar graph of radiation dose and UCN-01 dose (nM) vs percent viable U87 GBM cells. Red columns for 0 Gy and purple for 5 Gy—a clinically relevant dose.
GBM radiosensitization with low doses of the staralog UCN-01. […] As a precursor to studies with a range of staralogs, extensive model investigations with the class parent staralog model system, STS were performed.

A short description of series [3]: In vitro unbound fraction of UCN-01 in mouse plasma. The series is classed as in vitro ADME. Also on record: dose or concentration left out as unconfirmed. The source says: (§1) UCN-01 pharmacokinetics and nanoliposomes. Free UCN-01 is instantly bound by human alpha-1 acid glycoprotein (AAG) plasma protein with extremely high affinity and remains in circulation for remarkably extended periods of time. […] Unfortunately this greatly diminishes the availability of free (active) compound so that the in vivo effectiveness of UCN-01 is compromised even when it enters tumor tissue when bound to AAG the UCN-01 molecule is not bioavailable. Increasing the UCN-01 dose to sufficiently saturate AAG in the plasma elevates the risk of toxicity.

A short description of series [4]: In vitro unbound fraction of UCN-01 in rat plasma. The series is classed as in vitro ADME. More on the design: dose or concentration left out as unconfirmed.
Source text: as §1

Series [5] can be described thus: In vitro unbound fraction of UCN-01 in human plasma. Also on record: dose or concentration left out as unconfirmed. The class given is in vitro ADME.
Source text: as §1

Series [6] can be described thus: In vitro unbound fraction of UCN-01 in dog plasma. The class given is in vitro ADME. Also on record: dose or concentration left out as unconfirmed.
Source text: as §1

The test system of a further series is U87 glioblastoma cells. The series is described as follows: Potentiation of temozolomide. The class given is cell-based.
The test system of series [7] is GBM patient cancer stem cell derived GBM tumorsphere lines. The series is described as follows: GBM cytotoxicity, MTT assay in tumorsphere lines. The class given is cell-based. As to conditions: 8 GBM tumorsphere lines, almost all cell lines. On the procedure:
GBM cytotoxicity with UCN-01. 8 different GBM patient cancer stem cell derived GBM tumorsphere lines were incubated with a range of UCN-01 doses. The percent viable cells were determined with the MTT assay.
In general terms: Tetrazolium assays rely on reduction of a dye to a coloured formazan, in cell work by metabolically active cells.

Molecules are shown by their SMILES. Like-named read-outs stand apart in the source and are kept apart here.

As usually defined, the IC50 is the concentration at which inhibition is half-maximal.

In turn, `COc1cccc2c1C(=O)c1c(O)c3c(c(O)c1C2=O)C[C@@](O)(C(=O)CO)C[C@@H]3O[C@H]1C[C@H](N)[C@H](O)[C@H](C)O1` [Doxorubicin] came in with an IC50 in the series with U87 GBM (Homo sapiens, U-87 MG) of 1000 nM.

With `CN[C@@H]1C[C@H]2O[C@@](C)([C@@H]1OC)n1c3ccccc3c3c4c(c5c6ccccc6n2c5c31)C(=O)NC4` [STS, Staurosporine], in the series with U87 flank tumors, the “in vivo GBM proliferation (Ki-67)” value is listed as “did not”. For the same compound, the body weight result in series [1] was “reduction in body weight”. In the series with phosphorylation of Akt, the PARP cleavage result was “stimulated caspase 3 dependent PARP cleavage” and the phospho-Akt entry was “suppression of phospho-Akt”. Also, the “DNA content (FACS)” value with U87 cells is given as “G0 shift consistent with apoptosis”.

Compound `O=c1[nH]cc(F)c(=O)[nH]1` [Compound 5-FU, 5-FU] displayed an IC50 with U87 GBM of 2500 nM.

In the case of `Cn1nnc2c(C(N)=O)ncn2c1=O` [Temozolomide], the IC50 with U87 GBM (Homo sapiens, U-87 MG) was determined as 50000 nM.

Take `CN[C@@H]1C[C@H]2O[C@@](C)([C@@H]1OC)n1c3ccccc3c3c4c(c5c6ccccc6n2c5c31)C(=O)N[C@H]4O` [UCN-01, 7-hydroxystaurosporine]: the sensitization to radiation result in [2] is “able to sensitize”. In addition, the Unbound fraction % in series [3] was 1.14%; in [4] it was 1.75%; in [5], less than 0.02%; in series [6], 0.49%. For the same compound, in the series on U87 GBM, the concentration for half-maximal inhibition (IC50) turned out to be 50 nM. In addition, in the series on U87 glioblastoma cells, the “potentiation of temozolomide (TMZ)” value is on record as “potentiated temozolomide (TMZ)”. Moreover, the IC50 values result in series [7] is “low nanomolar (nM) range”.

Turning to `O=NN(CCCl)C(=O)NCCCl` [BCNU], the IC50 in the series on U87 GBM was found to be 60000 nM.
